According to paper PMC11249646, “Small-Molecule Disruptors of the Interaction between Calcium- and Integrin-Binding Protein 1 and Integrin αIIbβ3 as Novel Antiplatelet Agents” (ACS Pharmacology & Translational Science, 2024):

Molecular target: T1, GST-CIB1 : F-scrambled peptide (Homo sapiens, UniProt Q99828)
T1 construct: made in house; host or cells: BL-21 plus RIL cells (E. coli)
T1 sequence (Q99828 1-191): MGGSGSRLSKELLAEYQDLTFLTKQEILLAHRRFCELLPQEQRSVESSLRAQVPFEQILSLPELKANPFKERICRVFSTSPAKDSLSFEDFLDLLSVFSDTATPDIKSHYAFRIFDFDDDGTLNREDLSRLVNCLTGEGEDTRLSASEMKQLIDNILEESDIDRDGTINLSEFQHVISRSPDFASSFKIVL
Assay: FP scrambled-peptide counter screen, 384-well format
Type: binding
Conditions: F-scrambled peptide

| Compound | 384-well COUNTERSCREEN Efficacy (%) |
| --- | --- |
| CCc1nnc(NS(=O)(=O)c2ccc(NC(=S)NC(=O)/C=C/c3ccc(F)cc3)cc2)s1 [NCGC00351476-01] | -30% |
| NS(=O)(=O)c1ccc(Cc2c(-c3cccc(-c4ccccc4F)c3)nn(-c3nc(C(=O)O)cs3)c2O)cc1.O=C(O)C(F)(F)F [NCGC00356464-01] | 34% |

Same assay, conditions: F-scrambled peptide; *: Curve in opposite direction

| Compound | 384-well COUNTERSCREEN Confirm? |
| --- | --- |
| NS(=O)(=O)c1ccc(Cc2c(-c3cccc(-c4ccccc4F)c3)nn(-c3nc(C(=O)O)cs3)c2O)cc1.O=C(O)C(F)(F)F [NCGC00356464-01] | Inconclusive |

Same assay, conditions: F-scrambled peptide; read-out: 384-well COUNTERSCREEN IC50

| Compound | IC50 |
| --- | --- |
| CCc1nnc(NS(=O)(=O)c2ccc(NC(=S)NC(=O)/C=C/c3ccc(F)cc3)cc2)s1 [NCGC00351476-01] | 5 µM |
| NS(=O)(=O)c1ccc(Cc2c(-c3cccc(-c4ccccc4F)c3)nn(-c3nc(C(=O)O)cs3)c2O)cc1.O=C(O)C(F)(F)F [NCGC00356464-01] | 10 µM |

Molecular target: T2, CIB1 and αIIb interaction (GST-CIB1 : F-αIIb peptide) (Homo sapiens, UniProt Q99828)
T2 construct: made in house; host or cells: BL-21 plus RIL cells (E. coli)
T2 sequence (Q99828 1-191): T1 sequence (Q99828 1-191)
Assay: FP assay, 384-well format (screen)
Type: binding
Parameters: 384-well SCREEN Efficacy (%): concentration or dose not given beside the values
Conditions: F-αIIb peptide

| Compound | 384-well SCREEN Efficacy (%) |
| --- | --- |
| CCc1nnc(NS(=O)(=O)c2ccc(NC(=S)NC(=O)/C=C/c3ccc(F)cc3)cc2)s1 [NCGC00351476-01] | 30% |
| NS(=O)(=O)c1ccc(Cc2c(-c3cccc(-c4ccccc4F)c3)nn(-c3nc(C(=O)O)cs3)c2O)cc1.O=C(O)C(F)(F)F [NCGC00356464-01] | 57% |

Same assay, conditions: F-αIIb peptide; YES/NO

| Compound | 384-well SCREEN Confirm? |
| --- | --- |
| CCc1nnc(NS(=O)(=O)c2ccc(NC(=S)NC(=O)/C=C/c3ccc(F)cc3)cc2)s1 [NCGC00351476-01] | YES |
| NS(=O)(=O)c1ccc(Cc2c(-c3cccc(-c4ccccc4F)c3)nn(-c3nc(C(=O)O)cs3)c2O)cc1.O=C(O)C(F)(F)F [NCGC00356464-01] | YES |

Same assay, conditions: F-αIIb peptide; read-out: 384-well SCREEN IC50

| Compound | IC50 |
| --- | --- |
| CCc1nnc(NS(=O)(=O)c2ccc(NC(=S)NC(=O)/C=C/c3ccc(F)cc3)cc2)s1 [NCGC00351476-01] | 4.5 µM |
| NS(=O)(=O)c1ccc(Cc2c(-c3cccc(-c4ccccc4F)c3)nn(-c3nc(C(=O)O)cs3)c2O)cc1.O=C(O)C(F)(F)F [NCGC00356464-01] | 22.4 µM |

Same assay, conditions: selective toward αIIb: negative curve class and/or IC50 ratio of >3-fold and/or >2-fold efficacy vs scrambled peptide

| Compound | Confirm and Selective? |
| --- | --- |
| NS(=O)(=O)c1ccc(Cc2c(-c3cccc(-c4ccccc4F)c3)nn(-c3nc(C(=O)O)cs3)c2O)cc1.O=C(O)C(F)(F)F [NCGC00356464-01] | Inconclusive |

Molecular target: T3, CIB1 and αIIb interaction (CIB1-GST : F-αIIb peptide) (Homo sapiens, UniProt Q99828)
T3 construct: made in house; host or cells: BL-21 plus RIL cells (E. coli)
T3 sequence (Q99828 1-191): T1 sequence (Q99828 1-191)
Assay: FP assay, 1536-well qHTS format (primary and confirmatory screen)
Type: binding
Conditions: confirmatory screen, YES/NO call

| Compound | CONFIRMATORY SCREEN Confirm? |
| --- | --- |
| CCc1nnc(NS(=O)(=O)c2ccc(NC(=S)NC(=O)/C=C/c3ccc(F)cc3)cc2)s1 [NCGC00351476-01] | YES |
| NS(=O)(=O)c1ccc(Cc2c(-c3cccc(-c4ccccc4F)c3)nn(-c3nc(C(=O)O)cs3)c2O)cc1.O=C(O)C(F)(F)F [NCGC00356464-01] | YES |

Same assay, conditions: confirmatory screen, qHTS curve class; negative sign = inhibitory curve

| Compound | CONFIRMATORY SCREEN Curve Class |
| --- | --- |
| CCc1nnc(NS(=O)(=O)c2ccc(NC(=S)NC(=O)/C=C/c3ccc(F)cc3)cc2)s1 [NCGC00351476-01] | -1.2 |
| NS(=O)(=O)c1ccc(Cc2c(-c3cccc(-c4ccccc4F)c3)nn(-c3nc(C(=O)O)cs3)c2O)cc1.O=C(O)C(F)(F)F [NCGC00356464-01] | -1.2 |

Same assay, conditions: confirmatory screen; negative = inhibition

| Compound | CONFIRMATORY SCREEN Efficacy (%) |
| --- | --- |
| CCc1nnc(NS(=O)(=O)c2ccc(NC(=S)NC(=O)/C=C/c3ccc(F)cc3)cc2)s1 [NCGC00351476-01] | -36% |
| NS(=O)(=O)c1ccc(Cc2c(-c3cccc(-c4ccccc4F)c3)nn(-c3nc(C(=O)O)cs3)c2O)cc1.O=C(O)C(F)(F)F [NCGC00356464-01] | -74% |

Same assay, conditions: confirmatory screen; read-out: CONFIRMATORY SCREEN IC50

| Compound | IC50 |
| --- | --- |
| CCc1nnc(NS(=O)(=O)c2ccc(NC(=S)NC(=O)/C=C/c3ccc(F)cc3)cc2)s1 [NCGC00351476-01] | 8.9 µM |
| NS(=O)(=O)c1ccc(Cc2c(-c3cccc(-c4ccccc4F)c3)nn(-c3nc(C(=O)O)cs3)c2O)cc1.O=C(O)C(F)(F)F [NCGC00356464-01] | 39.8 µM |

Same assay, conditions: qHTS FP screen hits, Table S2; negative = inhibition

| Efficacy (%) | Compound |
| --- | --- |
| -29% | CCc1nnc(NS(=O)(=O)c2ccc(NC(=S)NC(=O)/C=C/c3ccc(F)cc3)cc2)s1 [NCGC00351476-01] |

Same assay, conditions: qHTS FP screen hits, Table S2; one class per curve where COUNT > 1; negative sign = inhibitory curve

| Curve Class | Compound |
| --- | --- |
| -1.2 | CCc1nnc(NS(=O)(=O)c2ccc(NC(=S)NC(=O)/C=C/c3ccc(F)cc3)cc2)s1 [NCGC00351476-01] |

Same assay, conditions: qHTS FP screen hits, Table S2; read-out: IC50

| IC50 | Compound |
| --- | --- |
| 7.9 µM | CCc1nnc(NS(=O)(=O)c2ccc(NC(=S)NC(=O)/C=C/c3ccc(F)cc3)cc2)s1 [NCGC00351476-01] |

Same assay, conditions: qHTS primary screen hits, Table S2; negative = inhibition

| Compound | Efficacy (%) |
| --- | --- |
| NS(=O)(=O)c1ccc(Cc2c(-c3cccc(-c4ccccc4F)c3)nn(-c3nc(C(=O)O)cs3)c2O)cc1.O=C(O)C(F)(F)F [NCGC00356464-01] | -63% |

Same assay, conditions: qHTS primary screen hits, Table S2; negative sign = inhibitory curve; several classes where COUNT > 1

| Compound | Curve Class |
| --- | --- |
| NS(=O)(=O)c1ccc(Cc2c(-c3cccc(-c4ccccc4F)c3)nn(-c3nc(C(=O)O)cs3)c2O)cc1.O=C(O)C(F)(F)F [NCGC00356464-01] | -2.2 |

Same assay, conditions: qHTS primary screen hits, Table S2; read-out: IC50

| Compound | IC50 |
| --- | --- |
| NS(=O)(=O)c1ccc(Cc2c(-c3cccc(-c4ccccc4F)c3)nn(-c3nc(C(=O)O)cs3)c2O)cc1.O=C(O)C(F)(F)F [NCGC00356464-01] | 79.4 µM |

Molecular target: T1, GST-CIB1 : F-scrambled peptide
Assay: FP scrambled-peptide counter screen, 1536-well format
Type: binding
Conditions: scrambled-peptide counterscreen

| Compound | COUNTERSCREEN Efficacy (%) |
| --- | --- |
| CCc1nnc(NS(=O)(=O)c2ccc(NC(=S)NC(=O)/C=C/c3ccc(F)cc3)cc2)s1 [NCGC00351476-01] | 57% |
| NS(=O)(=O)c1ccc(Cc2c(-c3cccc(-c4ccccc4F)c3)nn(-c3nc(C(=O)O)cs3)c2O)cc1.O=C(O)C(F)(F)F [NCGC00356464-01] | -32% |

Same assay, conditions: scrambled-peptide counterscreen, YES/NO call

| Compound | COUNTERSCREEN Confirm? |
| --- | --- |
| CCc1nnc(NS(=O)(=O)c2ccc(NC(=S)NC(=O)/C=C/c3ccc(F)cc3)cc2)s1 [NCGC00351476-01] | YES |
| NS(=O)(=O)c1ccc(Cc2c(-c3cccc(-c4ccccc4F)c3)nn(-c3nc(C(=O)O)cs3)c2O)cc1.O=C(O)C(F)(F)F [NCGC00356464-01] | YES |

Same assay, conditions: scrambled-peptide counterscreen, qHTS curve class

| Compound | COUNTERSCREEN Curve Class |
| --- | --- |
| CCc1nnc(NS(=O)(=O)c2ccc(NC(=S)NC(=O)/C=C/c3ccc(F)cc3)cc2)s1 [NCGC00351476-01] | 3 |
| NS(=O)(=O)c1ccc(Cc2c(-c3cccc(-c4ccccc4F)c3)nn(-c3nc(C(=O)O)cs3)c2O)cc1.O=C(O)C(F)(F)F [NCGC00356464-01] | 4 |

Same assay, conditions: scrambled-peptide counterscreen; read-out: COUNTERSCREEN IC50

| IC50 | Compound |
| --- | --- |
| 70.8 µM | CCc1nnc(NS(=O)(=O)c2ccc(NC(=S)NC(=O)/C=C/c3ccc(F)cc3)cc2)s1 [NCGC00351476-01] |
